Test results: PubChem BioAssay (NCI)
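These data come from cells grown in 96-well plates and exposed to compound for 48 hours at five concentrations. GI50: concentration for 50% inhibition of growth. TGI: total growth inhibition.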

Key:
Assay in all cases: NCI tumour cell line growth inhibition, 48 h
SK-MEL-5 melanoma = tested on: SK-MEL-5 melanoma
NCI/ADR-RES ovarian = tested on: NCI/ADR-RES ovarian
OVCAR-3 ovarian = tested on: OVCAR-3 ovarian
LOX IMVI melanoma = tested on: LOX IMVI melanoma
UACC-257 melanoma = tested on: UACC-257 melanoma
SNB-19 CNS = tested on: SNB-19 CNS
PC-3 prostate = tested on: PC-3 prostate
SNB-75 CNS = tested on: SNB-75 CNS
SF-268 CNS = tested on: SF-268 CNS
HL-60(TB) leukemia = tested on: HL-60(TB) leukemia
K-562 leukemia = tested on: K-562 leukemia
SK-MEL-2 melanoma = tested on: SK-MEL-2 melanoma
HS 578T breast = tested on: HS 578T breast
HOP-92 NSCLC = tested on: HOP-92 NSCLC
NCI-H23 lung = tested on: NCI-H23 lung
MDA-MB-231 breast = tested on: MDA-MB-231 breast
BT-549 breast = tested on: BT-549 breast
DU-145 prostate = tested on: DU-145 prostate
A549 NSCLC = tested on: A549 NSCLC
RPMI-8226 leukemia = tested on: RPMI-8226 leukemia
CCRF-CEM leukemia = tested on: CCRF-CEM leukemia
NCI-H522 lung = tested on: NCI-H522 lung
MCF7 breast = tested on: MCF7 breast
HCT-116 colon = tested on: HCT-116 colon
HOP-62 NSCLC = tested on: HOP-62 NSCLC
MALME-3M melanoma = tested on: MALME-3M melanoma
CAKI-1 renal = tested on: CAKI-1 renal
SK-MEL-28 melanoma = tested on: SK-MEL-28 melanoma
ACHN renal = tested on: ACHN renal
NCI-H226 lung = tested on: NCI-H226 lung
COLO 205 colon = tested on: COLO 205 colon
UO-31 renal = tested on: UO-31 renal
KM12 colon = tested on: KM12 colon
UACC-62 melanoma = tested on: UACC-62 melanoma
HCC-2998 colon = tested on: HCC-2998 colon
SW-620 colon = tested on: SW-620 colon
HCT-15 colon = tested on: HCT-15 colon
U251 CNS = tested on: U251 CNS
IGROV1 ovarian = tested on: IGROV1 ovarian
SK-OV-3 ovarian = tested on: SK-OV-3 ovarian
786-0 renal = tested on: 786-0 renal
T-47D breast = tested on: T-47D breast
MOLT-4 leukemia = tested on: MOLT-4 leukemia
OVCAR-5 ovarian = tested on: OVCAR-5 ovarian
A498 renal = tested on: A498 renal
SF-295 CNS = tested on: SF-295 CNS
M14 melanoma = tested on: M14 melanoma
SR leukemia = tested on: SR leukemia
OVCAR-8 ovarian = tested on: OVCAR-8 ovarian
SN12C renal = tested on: SN12C renal
OVCAR-4 ovarian = tested on: OVCAR-4 ovarian
EKVX NSCLC = tested on: EKVX NSCLC
TK-10 renal = tested on: TK-10 renal
HT29 colon = tested on: HT29 colon
NCI-H460 lung = tested on: NCI-H460 lung
SF-539 CNS = tested on: SF-539 CNS
MDA-MB-468 breast = tested on: MDA-MB-468 breast

**Q.** How did the GI50 (SK-MEL-5 melanoma) turn out when `COc1ccsc1/C=N/NC(=O)c1[nH]c2ccc(Br)cc2c1-c1ccccc1` was run?
**A.** 315 nM

**Q.** What about the TGI (SK-MEL-5 melanoma) of the same molecule?
**A.** 1150 nM

**Q.** What about the GI50 (NCI/ADR-RES ovarian) of the same molecule?
**A.** 268 nM

**Q.** And the TGI (NCI/ADR-RES ovarian)?
**A.** 739 nM

**Q.** And the GI50 (OVCAR-3 ovarian)?
**A.** 407 nM

**Q.** What about the TGI (OVCAR-3 ovarian) of the same molecule?
**A.** 15300 nM

**Q.** And the GI50 (LOX IMVI melanoma)?
**A.** 519 nM

**Q.** And the TGI (LOX IMVI melanoma)?
**A.** 13700 nM

**Q.** And the GI50 (UACC-257 melanoma)?
**A.** 2910 nM

**Q.** And the TGI (UACC-257 melanoma)?
**A.** > 56900 nM

**Q.** And the GI50 (SNB-19 CNS)?
**A.** 511 nM

**Q.** And the TGI (SNB-19 CNS)?
**A.** > 100000 nM

**Q.** What about the GI50 (PC-3 prostate) of the same molecule?
**A.** 410 nM

**Q.** And the TGI (PC-3 prostate)?
**A.** 39700 nM

**Q.** And the GI50 (SNB-75 CNS)?
**A.** 311 nM

**Q.** What about the TGI (SNB-75 CNS) of the same molecule?
**A.** 2260 nM

**Q.** And the GI50 (SF-268 CNS)?
**A.** 997 nM

**Q.** And the TGI (SF-268 CNS)?
**A.** 39600 nM

**Q.** And the GI50 (HL-60(TB) leukemia)?
**A.** 223 nM

**Q.** What about the TGI (HL-60(TB) leukemia) of the same molecule?
**A.** 605 nM

**Q.** And the GI50 (K-562 leukemia)?
**A.** 282 nM

**Q.** And the TGI (K-562 leukemia)?
**A.** > 55700 nM

**Q.** And the GI50 (SK-MEL-2 melanoma)?
**A.** 308 nM

**Q.** And the TGI (SK-MEL-2 melanoma)?
**A.** 10700 nM

**Q.** And the GI50 (HS 578T breast)?
**A.** 338 nM

**Q.** What about the TGI (HS 578T breast) of the same molecule?
**A.** 65200 nM

**Q.** What about the GI50 (HOP-92 NSCLC) of the same molecule?
**A.** 4060 nM

**Q.** And the TGI (HOP-92 NSCLC)?
**A.** 29300 nM

**Q.** And the GI50 (NCI-H23 lung)?
**A.** 568 nM

**Q.** And the TGI (NCI-H23 lung)?
**A.** 25200 nM

**Q.** And the GI50 (MDA-MB-231 breast)?
**A.** 437 nM

**Q.** What about the TGI (MDA-MB-231 breast) of the same molecule?
**A.** 13000 nM

**Q.** What about the GI50 (BT-549 breast) of the same molecule?
**A.** 739 nM

**Q.** And the TGI (BT-549 breast)?
**A.** 5260 nM

**Q.** What about the GI50 (DU-145 prostate) of the same molecule?
**A.** 454 nM

**Q.** And the TGI (DU-145 prostate)?
**A.** > 100000 nM

**Q.** And the GI50 (A549 NSCLC)?
**A.** 634 nM

**Q.** And the TGI (A549 NSCLC)?
**A.** > 54200 nM

**Q.** And the GI50 (RPMI-8226 leukemia)?
**A.** 388 nM

**Q.** And the TGI (RPMI-8226 leukemia)?
**A.** 3870 nM

**Q.** What about the GI50 (CCRF-CEM leukemia) of the same molecule?
**A.** 311 nM

**Q.** What about the TGI (CCRF-CEM leukemia) of the same molecule?
**A.** 5010 nM

**Q.** And the GI50 (NCI-H522 lung)?
**A.** 187 nM

**Q.** What about the TGI (NCI-H522 lung) of the same molecule?
**A.** 781 nM

**Q.** What about the GI50 (MCF7 breast) of the same molecule?
**A.** 332 nM

**Q.** And the TGI (MCF7 breast)?
**A.** 16500 nM

**Q.** And the GI50 (HCT-116 colon)?
**A.** 369 nM

**Q.** What about the TGI (HCT-116 colon) of the same molecule?
**A.** 5510 nM

**Q.** What about the GI50 (HOP-62 NSCLC) of the same molecule?
**A.** 468 nM

**Q.** And the TGI (HOP-62 NSCLC)?
**A.** > 45100 nM

**Q.** And the GI50 (MALME-3M melanoma)?
**A.** 538 nM

**Q.** What about the TGI (MALME-3M melanoma) of the same molecule?
**A.** 25700 nM

**Q.** And the GI50 (CAKI-1 renal)?
**A.** 464 nM

**Q.** And the TGI (CAKI-1 renal)?
**A.** > 56600 nM

**Q.** And the GI50 (SK-MEL-28 melanoma)?
**A.** 925 nM

**Q.** What about the TGI (SK-MEL-28 melanoma) of the same molecule?
**A.** 40800 nM

**Q.** What about the GI50 (ACHN renal) of the same molecule?
**A.** 710 nM

**Q.** And the TGI (ACHN renal)?
**A.** 20700 nM

**Q.** And the GI50 (NCI-H226 lung)?
**A.** 934 nM

**Q.** What about the TGI (NCI-H226 lung) of the same molecule?
**A.** 9950 nM

**Q.** And the GI50 (COLO 205 colon)?
**A.** 373 nM

**Q.** And the TGI (COLO 205 colon)?
**A.** 1320 nM

**Q.** And the GI50 (UO-31 renal)?
**A.** 579 nM

**Q.** And the TGI (UO-31 renal)?
**A.** 34800 nM

**Q.** What about the GI50 (KM12 colon) of the same molecule?
**A.** 428 nM

**Q.** What about the TGI (KM12 colon) of the same molecule?
**A.** 13800 nM

**Q.** What about the GI50 (UACC-62 melanoma) of the same molecule?
**A.** 306 nM

**Q.** And the TGI (UACC-62 melanoma)?
**A.** 17500 nM

**Q.** What about the GI50 (HCC-2998 colon) of the same molecule?
**A.** 622 nM

**Q.** What about the TGI (HCC-2998 colon) of the same molecule?
**A.** 14500 nM

**Q.** What about the GI50 (SW-620 colon) of the same molecule?
**A.** 413 nM

**Q.** And the TGI (SW-620 colon)?
**A.** > 100000 nM

**Q.** And the GI50 (HCT-15 colon)?
**A.** 372 nM

**Q.** What about the TGI (HCT-15 colon) of the same molecule?
**A.** 16400 nM

**Q.** And the GI50 (U251 CNS)?
**A.** 410 nM

**Q.** And the TGI (U251 CNS)?
**A.** 20500 nM

**Q.** What about the GI50 (IGROV1 ovarian) of the same molecule?
**A.** 582 nM

**Q.** And the TGI (IGROV1 ovarian)?
**A.** 20500 nM

**Q.** What about the GI50 (SK-OV-3 ovarian) of the same molecule?
**A.** 500 nM

**Q.** What about the TGI (SK-OV-3 ovarian) of the same molecule?
**A.** 34700 nM

**Q.** What about the GI50 (786-0 renal) of the same molecule?
**A.** 563 nM

**Q.** What about the TGI (786-0 renal) of the same molecule?
**A.** 12600 nM

**Q.** And the GI50 (T-47D breast)?
**A.** 449 nM

**Q.** What about the TGI (T-47D breast) of the same molecule?
**A.** 25700 nM

**Q.** What about the GI50 (MOLT-4 leukemia) of the same molecule?
**A.** 403 nM

**Q.** And the TGI (MOLT-4 leukemia)?
**A.** 11500 nM

**Q.** And the GI50 (OVCAR-5 ovarian)?
**A.** 513 nM

**Q.** And the TGI (OVCAR-5 ovarian)?
**A.** 68200 nM

**Q.** And the GI50 (A498 renal)?
**A.** 15300 nM

**Q.** What about the TGI (A498 renal) of the same molecule?
**A.** 53300 nM

**Q.** What about the GI50 (SF-295 CNS) of the same molecule?
**A.** 317 nM

**Q.** What about the TGI (SF-295 CNS) of the same molecule?
**A.** 13400 nM

**Q.** What about the GI50 (M14 melanoma) of the same molecule?
**A.** 316 nM

**Q.** And the TGI (M14 melanoma)?
**A.** 13700 nM

**Q.** And the GI50 (SR leukemia)?
**A.** 369 nM

**Q.** And the TGI (SR leukemia)?
**A.** > 100000 nM

**Q.** What about the GI50 (OVCAR-8 ovarian) of the same molecule?
**A.** 395 nM

**Q.** And the GI50 (SN12C renal)?
**A.** 517 nM

**Q.** And the TGI (SN12C renal)?
**A.** 8110 nM

**Q.** And the GI50 (OVCAR-4 ovarian)?
**A.** 6340 nM

**Q.** What about the TGI (OVCAR-4 ovarian) of the same molecule?
**A.** > 100000 nM

**Q.** And the GI50 (EKVX NSCLC)?
**A.** 502 nM

**Q.** What about the TGI (EKVX NSCLC) of the same molecule?
**A.** > 100000 nM

**Q.** What about the GI50 (TK-10 renal) of the same molecule?
**A.** 7010 nM

**Q.** What about the TGI (TK-10 renal) of the same molecule?
**A.** 63900 nM

**Q.** What about the GI50 (HT29 colon) of the same molecule?
**A.** 271 nM

**Q.** What about the TGI (HT29 colon) of the same molecule?
**A.** 698 nM

**Q.** And the GI50 (NCI-H460 lung)?
**A.** 362 nM

**Q.** And the TGI (NCI-H460 lung)?
**A.** 11000 nM

**Q.** And the GI50 (SF-539 CNS)?
**A.** 233 nM

**Q.** What about the TGI (SF-539 CNS) of the same molecule?
**A.** 584 nM

**Q.** And the GI50 (MDA-MB-468 breast)?
**A.** 273 nM

**Q.** And the TGI (MDA-MB-468 breast)?
**A.** 870 nM
